# Results reported in PubChem BioAssay (NCI).
#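 Exposure lasted 48 hours, with cells grown in 96-well plates and compounds tested at five concentrations. TGI is the concentration that stops growth completely.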
# Tests used:
# Experiment in all cases: NCI tumour cell line growth inhibition, 48 h
# A549 NSCLC = tested on: A549 NSCLC
# SNB-19 CNS = tested on: SNB-19 CNS
# DMS 273 small cell lung = tested on: DMS 273 small cell lung
# ACHN renal = tested on: ACHN renal
# HL-60(TB) leukemia = tested on: HL-60(TB) leukemia
# NCI-H226 lung = tested on: NCI-H226 lung
# OVCAR-8 ovarian = tested on: OVCAR-8 ovarian
# HCT-15 colon = tested on: HCT-15 colon
# RXF 393 renal = tested on: RXF 393 renal
# SK-MEL-2 melanoma = tested on: SK-MEL-2 melanoma
# UO-31 renal = tested on: UO-31 renal
# EKVX NSCLC = tested on: EKVX NSCLC
# XF 498 CNS = tested on: XF 498 CNS
# SNB-78 CNS = tested on: SNB-78 CNS
# NCI-H522 lung = tested on: NCI-H522 lung
# SF-539 CNS = tested on: SF-539 CNS
# UACC-257 melanoma = tested on: UACC-257 melanoma
# MOLT-4 leukemia = tested on: MOLT-4 leukemia
# HCC-2998 colon = tested on: HCC-2998 colon
# CAKI-1 renal = tested on: CAKI-1 renal
# OVCAR-3 ovarian = tested on: OVCAR-3 ovarian
# DMS 114 small cell lung = tested on: DMS 114 small cell lung
# RXF-631 renal = tested on: RXF-631 renal
# OVCAR-4 ovarian = tested on: OVCAR-4 ovarian
# M19-MEL melanoma = tested on: M19-MEL melanoma
# NCI-H23 lung = tested on: NCI-H23 lung
# K-562 leukemia = tested on: K-562 leukemia
# HCT-116 colon = tested on: HCT-116 colon
# COLO 205 colon = tested on: COLO 205 colon
# SN12C renal = tested on: SN12C renal
# SK-MEL-28 melanoma = tested on: SK-MEL-28 melanoma
# KM12 colon = tested on: KM12 colon
# OVCAR-5 ovarian = tested on: OVCAR-5 ovarian
# SR leukemia = tested on: SR leukemia
# RPMI-8226 leukemia = tested on: RPMI-8226 leukemia
# LOX IMVI melanoma = tested on: LOX IMVI melanoma
# HOP-62 NSCLC = tested on: HOP-62 NSCLC
# A498 renal = tested on: A498 renal
# SF-268 CNS = tested on: SF-268 CNS
# NCI-H460 lung = tested on: NCI-H460 lung
# HT29 colon = tested on: HT29 colon
# 786-0 renal = tested on: 786-0 renal
# CCRF-CEM leukemia = tested on: CCRF-CEM leukemia
# KM20L2 colon = tested on: KM20L2 colon
# MALME-3M melanoma = tested on: MALME-3M melanoma
# SF-295 CNS = tested on: SF-295 CNS
# IGROV1 ovarian = tested on: IGROV1 ovarian
# UACC-62 melanoma = tested on: UACC-62 melanoma
# SW-620 colon = tested on: SW-620 colon
# M14 melanoma = tested on: M14 melanoma
# DLD-1 colon = tested on: DLD-1 colon
# U251 CNS = tested on: U251 CNS
# HOP-92 NSCLC = tested on: HOP-92 NSCLC
# SK-OV-3 ovarian = tested on: SK-OV-3 ovarian
# TK-10 renal = tested on: TK-10 renal
# DU-145 prostate = tested on: DU-145 prostate
# T-47D breast = tested on: T-47D breast
# HOP-18 NSCLC = tested on: HOP-18 NSCLC
# SK-MEL-5 melanoma = tested on: SK-MEL-5 melanoma
# BT-549 breast = tested on: BT-549 breast
# MDA-MB-231 breast = tested on: MDA-MB-231 breast
# MDA-MB-435 = tested on: MDA-MB-435
# MDA-N = tested on: MDA-N
# SNB-75 CNS = tested on: SNB-75 CNS
# PC-3 prostate = tested on: PC-3 prostate
# LXFL 529 NSCLC = tested on: LXFL 529 NSCLC
# HS 578T breast = tested on: HS 578T breast
# NCI/ADR-RES ovarian = tested on: NCI/ADR-RES ovarian
# MCF7 breast = tested on: MCF7 breast
smiles,measurement,setting,value
O=C(O)/C=C/n1c2ccccc2c(=O)c2ccccc21,TGI,A549 NSCLC,> 100 µM
same,TGI,SNB-19 CNS,> 100 µM
same,TGI,DMS 273 small cell lung,> 100 µM
same,TGI,ACHN renal,> 100 µM
same,TGI,HL-60(TB) leukemia,> 100 µM
same,TGI,NCI-H226 lung,> 100 µM
same,TGI,OVCAR-8 ovarian,> 100 µM
same,TGI,HCT-15 colon,> 100 µM
same,TGI,RXF 393 renal,> 100 µM
same,TGI,SK-MEL-2 melanoma,> 100 µM
same,TGI,UO-31 renal,> 100 µM
same,TGI,EKVX NSCLC,> 100 µM
same,TGI,XF 498 CNS,> 100 µM
same,TGI,SNB-78 CNS,> 100 µM
same,TGI,NCI-H522 lung,> 100 µM
same,TGI,SF-539 CNS,> 100 µM
same,TGI,UACC-257 melanoma,> 100 µM
same,TGI,MOLT-4 leukemia,> 100 µM
same,TGI,HCC-2998 colon,> 100 µM
same,TGI,CAKI-1 renal,> 100 µM
same,TGI,OVCAR-3 ovarian,> 100 µM
same,TGI,DMS 114 small cell lung,> 100 µM
same,TGI,RXF-631 renal,> 100 µM
same,TGI,OVCAR-4 ovarian,> 100 µM
same,TGI,M19-MEL melanoma,> 100 µM
same,TGI,NCI-H23 lung,> 100 µM
same,TGI,K-562 leukemia,> 100 µM
same,TGI,HCT-116 colon,> 100 µM
same,TGI,COLO 205 colon,> 100 µM
same,TGI,SN12C renal,> 100 µM
same,TGI,SK-MEL-28 melanoma,> 100 µM
same,TGI,KM12 colon,> 100 µM
same,TGI,OVCAR-5 ovarian,> 100 µM
same,TGI,SR leukemia,> 100 µM
same,TGI,RPMI-8226 leukemia,> 100 µM
same,TGI,LOX IMVI melanoma,> 100 µM
same,TGI,HOP-62 NSCLC,> 100 µM
same,TGI,A498 renal,> 100 µM
same,TGI,SF-268 CNS,> 100 µM
same,TGI,NCI-H460 lung,> 100 µM
same,TGI,HT29 colon,> 100 µM
same,TGI,786-0 renal,> 100 µM
same,TGI,CCRF-CEM leukemia,> 100 µM
same,TGI,KM20L2 colon,> 100 µM
same,TGI,MALME-3M melanoma,> 100 µM
same,TGI,SF-295 CNS,> 100 µM
same,TGI,IGROV1 ovarian,> 100 µM
same,TGI,UACC-62 melanoma,> 100 µM
same,TGI,SW-620 colon,> 100 µM
same,TGI,M14 melanoma,> 100 µM
same,TGI,DLD-1 colon,> 100 µM
same,TGI,U251 CNS,> 100 µM
CCCCCCC(=O)OC[n+]1ccc2c(C)c3[nH]c4ccccc4c3c(C)c2c1,TGI,ACHN renal,12.4 µM
same,TGI,HL-60(TB) leukemia,> 100 µM
same,TGI,RXF 393 renal,2.26 µM
same,TGI,SK-MEL-2 melanoma,37.8 µM
same,TGI,UO-31 renal,26 µM
same,TGI,MOLT-4 leukemia,12.7 µM
same,TGI,CAKI-1 renal,6.55 µM
same,TGI,RXF-631 renal,> 100 µM
same,TGI,HOP-92 NSCLC,23.9 µM
same,TGI,SK-MEL-28 melanoma,3.1 µM
same,TGI,OVCAR-5 ovarian,3.6 µM
same,TGI,SR leukemia,8.77 µM
same,TGI,RPMI-8226 leukemia,1.69 µM
same,TGI,HOP-62 NSCLC,24.7 µM
same,TGI,SK-OV-3 ovarian,6.31 µM
same,TGI,A498 renal,2.19 µM
same,TGI,SF-268 CNS,2.52 µM
same,TGI,KM20L2 colon,2.96 µM
same,TGI,IGROV1 ovarian,30.8 µM
same,TGI,UACC-62 melanoma,16.4 µM
same,TGI,TK-10 renal,14.3 µM
C=CCc1cc(-c2cc(CC=C)c(O)c(CN(CCCl)CCCl)c2)cc(CN(CCCl)CCCl)c1O,TGI,A549 NSCLC,45.3 µM
same,TGI,DU-145 prostate,30.8 µM
same,TGI,T-47D breast,24.8 µM
same,TGI,SNB-19 CNS,51.8 µM
same,TGI,DMS 273 small cell lung,30.3 µM
same,TGI,ACHN renal,21.9 µM
same,TGI,HL-60(TB) leukemia,> 100 µM
same,TGI,NCI-H226 lung,33.5 µM
same,TGI,HOP-18 NSCLC,67 µM
same,TGI,OVCAR-8 ovarian,74.1 µM
same,TGI,SK-MEL-5 melanoma,32.7 µM
same,TGI,HCT-15 colon,38 µM
same,TGI,BT-549 breast,66.9 µM
same,TGI,MDA-MB-231 breast,45.2 µM
same,TGI,RXF 393 renal,35.8 µM
same,TGI,SK-MEL-2 melanoma,40.6 µM
same,TGI,UO-31 renal,32.1 µM
same,TGI,EKVX NSCLC,22.5 µM
same,TGI,SNB-78 CNS,> 100 µM
same,TGI,NCI-H522 lung,27.3 µM
same,TGI,SF-539 CNS,36.3 µM
same,TGI,UACC-257 melanoma,33.7 µM
same,TGI,MDA-MB-435,31.1 µM
same,TGI,MOLT-4 leukemia,> 100 µM
same,TGI,HCC-2998 colon,29.2 µM
same,TGI,CAKI-1 renal,34.6 µM
same,TGI,MDA-N,35 µM
same,TGI,OVCAR-3 ovarian,36.2 µM
same,TGI,SNB-75 CNS,58.6 µM
same,TGI,PC-3 prostate,25.8 µM
same,TGI,RXF-631 renal,39.3 µM
same,TGI,OVCAR-4 ovarian,52.6 µM
same,TGI,LXFL 529 NSCLC,29.7 µM
same,TGI,M19-MEL melanoma,34.7 µM
same,TGI,NCI-H23 lung,22.1 µM
same,TGI,K-562 leukemia,> 100 µM
same,TGI,HCT-116 colon,25.3 µM
same,TGI,COLO 205 colon,43.4 µM
same,TGI,HOP-92 NSCLC,32.2 µM
same,TGI,SN12C renal,27.7 µM
same,TGI,SK-MEL-28 melanoma,40.2 µM
same,TGI,KM12 colon,36.7 µM
same,TGI,HS 578T breast,> 100 µM
same,TGI,OVCAR-5 ovarian,35.4 µM
same,TGI,SR leukemia,> 100 µM
same,TGI,RPMI-8226 leukemia,> 100 µM
same,TGI,LOX IMVI melanoma,> 80.8 µM
same,TGI,HOP-62 NSCLC,43.5 µM
same,TGI,NCI/ADR-RES ovarian,78.4 µM
same,TGI,SK-OV-3 ovarian,46.9 µM
same,TGI,A498 renal,40.5 µM
same,TGI,SF-268 CNS,47.8 µM
same,TGI,NCI-H460 lung,29.1 µM
same,TGI,HT29 colon,33.3 µM
same,TGI,MCF7 breast,42.7 µM
same,TGI,786-0 renal,37.9 µM
same,TGI,CCRF-CEM leukemia,> 100 µM
same,TGI,KM20L2 colon,35.4 µM
same,TGI,MALME-3M melanoma,42.6 µM
same,TGI,SF-295 CNS,38.7 µM
same,TGI,IGROV1 ovarian,38.9 µM
same,TGI,UACC-62 melanoma,28.9 µM
same,TGI,SW-620 colon,27.7 µM
same,TGI,TK-10 renal,38.8 µM
same,TGI,M14 melanoma,38.3 µM
same,TGI,DLD-1 colon,36.2 µM
same,TGI,U251 CNS,24.8 µM
COC(=O)C1=C(O)c2cc(OC)c(OC)c(OC)c2[C@H](c2cc(OC)c(OC)c(OC)c2)C1C(=O)OC (stereo not given in full),TGI,A549 NSCLC,> 100 µM
same,TGI,SNB-19 CNS,> 100 µM
same,TGI,DMS 273 small cell lung,51.4 µM
same,TGI,ACHN renal,> 100 µM
same,TGI,HL-60(TB) leukemia,61.6 µM
same,TGI,NCI-H226 lung,> 100 µM
same,TGI,OVCAR-8 ovarian,> 100 µM
same,TGI,SK-MEL-5 melanoma,> 100 µM
same,TGI,HCT-15 colon,> 100 µM
same,TGI,RXF 393 renal,59.5 µM
same,TGI,UO-31 renal,> 100 µM
same,TGI,EKVX NSCLC,> 100 µM
same,TGI,XF 498 CNS,> 100 µM
same,TGI,SNB-78 CNS,> 100 µM
same,TGI,NCI-H522 lung,43.5 µM
same,TGI,SF-539 CNS,38.9 µM
same,TGI,UACC-257 melanoma,> 100 µM
same,TGI,MOLT-4 leukemia,68.3 µM
same,TGI,HCC-2998 colon,83.9 µM
same,TGI,CAKI-1 renal,> 100 µM
same,TGI,OVCAR-3 ovarian,58.4 µM
same,TGI,DMS 114 small cell lung,87.7 µM
same,TGI,SNB-75 CNS,> 100 µM
same,TGI,RXF-631 renal,97.2 µM
same,TGI,OVCAR-4 ovarian,> 100 µM
same,TGI,LXFL 529 NSCLC,> 100 µM
same,TGI,NCI-H23 lung,> 100 µM
same,TGI,K-562 leukemia,86.1 µM
same,TGI,HCT-116 colon,> 100 µM
same,TGI,COLO 205 colon,37.9 µM
same,TGI,HOP-92 NSCLC,69.3 µM
same,TGI,SN12C renal,> 100 µM
same,TGI,SK-MEL-28 melanoma,> 100 µM
same,TGI,KM12 colon,> 100 µM
same,TGI,OVCAR-5 ovarian,> 100 µM
same,TGI,RPMI-8226 leukemia,87.1 µM
same,TGI,LOX IMVI melanoma,> 100 µM
same,TGI,HOP-62 NSCLC,> 100 µM
same,TGI,SK-OV-3 ovarian,> 100 µM
same,TGI,A498 renal,> 100 µM
same,TGI,SF-268 CNS,> 100 µM
same,TGI,NCI-H460 lung,> 100 µM
same,TGI,HT29 colon,61.6 µM
same,TGI,786-0 renal,> 100 µM
same,TGI,CCRF-CEM leukemia,> 100 µM
same,TGI,KM20L2 colon,37.5 µM
same,TGI,MALME-3M melanoma,> 100 µM
same,TGI,SF-295 CNS,98.1 µM
same,TGI,IGROV1 ovarian,> 100 µM
same,TGI,UACC-62 melanoma,76 µM
same,TGI,SW-620 colon,> 100 µM
same,TGI,TK-10 renal,> 100 µM
same,TGI,M14 melanoma,> 100 µM
same,TGI,DLD-1 colon,> 100 µM
same,TGI,U251 CNS,> 100 µM
